Measured values from patent US20230348447A1, “OXAZOLIDINONE COMPOUNDS, LIPOSOME COMPOSITIONS COMPRISING OXAZOLIDINONE COMPOUNDS AND METHOD OF USE THEREOF” (priority 2020, published 2023).
≈ marks a conversion by molar mass, not a printed value.

Assays:
[1] = system: M. tuberculosis MDR strain M28; assay: microbe, parasite or virus in culture; type: cell-based, Mycobacterium tuberculosis; details: for MIC: Mycobacterium tuberculosis, read-out: MIC, µg/mL in M.tuberculosis strain M28; for MIC, µg/mL in M.tuberculosis strain M28: MABA assay
[2] = system: M. tuberculosis MDR strain M94; assay: microbe, parasite or virus in culture; type: cell-based, Mycobacterium tuberculosis; details: for MIC: Mycobacterium tuberculosis, read-out: MIC, µg/mL in M.tuberculosis strain M94; for MIC, µg/mL in M.tuberculosis strain M94: MABA assay
M. tuberculosis H37Rv = assay: microbe, parasite or virus in culture; type: cell-based, Mycobacterium tuberculosis; details: for MIC: Mycobacterium tuberculosis, H37RV, read-out: MIC, µg/mL in M.tuberculosis strain H37Rv; for MIC, µg/mL in M.tuberculosis strain H37Rv: MABA assay, drug-susceptible strain H37Rv
[3] = system: M. tuberculosis MDR strain M14; assay: microbe, parasite or virus in culture; type: cell-based, Mycobacterium tuberculosis; details: for MIC: Mycobacterium tuberculosis, read-out: MIC, µg/mL in M.tuberculosis strain M14; for MIC, µg/mL in M.tuberculosis strain M14: MABA assay
[4] = system: M. tuberculosis MDR strain M70; assay: microbe, parasite or virus in culture; type: cell-based, Mycobacterium tuberculosis; details: for MIC: Mycobacterium tuberculosis, read-out: MIC, µg/mL in M.tuberculosis strain M70; for MIC, µg/mL in M.tuberculosis strain M70: MABA assay
[5] = system: M. tuberculosis MDR strain TN5904; assay: microbe, parasite or virus in culture; type: cell-based, Mycobacterium tuberculosis; details: for MIC: Mycobacterium tuberculosis, read-out: MIC, µg/mL in M.tuberculosis strain TN5904; for MIC, µg/mL in M.tuberculosis strain TN5904: MABA assay
[6] = system: M. tuberculosis MDR strain M14; design: key: R- resistant; S -susceptible; details: cited from earlier work
[7] = system: M. tuberculosis MDR strain TN5904; design: key: R- resistant; S -susceptible; details: cited from earlier work
[8] = system: M. tuberculosis MDR strain M94; design: key: R- resistant; S -susceptible; details: cited from earlier work
[9] = system: M. tuberculosis MDR strain M70; design: key: R- resistant; S -susceptible; details: cited from earlier work
[10] = system: M. tuberculosis MDR strain M28; design: key: R- resistant; S -susceptible; details: cited from earlier work

With Cl.Cn1nnc(-c2ccc(-c3ccc(N4C[C@H](CN)OC4=O)cc3F)cn2)n1 [AKG-3] as the molecule, how does the MIC [1] read?
The MIC was 0.06 µg/mL.

And the MIC [2]?
Its MIC is 0.06 µg/mL.

And the MIC (M. tuberculosis H37Rv)?
Its MIC is 0.125 µg/mL.

And the MIC [3]?
Its MIC is 0.03 µg/mL.

What about the MIC [4] of the same molecule?
The MIC was ≤ 0.015 µg/mL.

What about the MIC [5] of the same molecule?
The MIC was 0.06 µg/mL.

Which results are given for CN(C)CCn1nnc(-c2ccc(-c3ccc(N4C[C@H](CO)OC4=O)cc3F)cn2)n1 [AKG-16]?
MIC [1]: 0.25 µg/mL (≈ 0.585 µM); MIC [2]: 0.06 µg/mL (≈ 0.14 µM); MIC [3]: 0.06 µg/mL (≈ 0.14 µM); MIC [4]: 0.125 µg/mL (≈ 0.292 µM); MIC [5]: 0.06 µg/mL (≈ 0.14 µM)

What does the source list for CN(C)CCn1nnc(-c2ccc(-c3ccc(N4C[C@H](CN)OC4=O)cc3F)cn2)n1.Cl [AKG-28]?
MIC [1]: 0.015 µg/mL; MIC [2]: 0.015 µg/mL; MIC (M. tuberculosis H37Rv): 0.03 µg/mL; MIC [3]: 0.015 µg/mL; MIC [4]: ≤ 0.004 µg/mL; MIC [5]: 0.015 µg/mL

With Cl.Cl.NCCn1nnc(-c2ccc(-c3ccc(N4C[C@H](CN)OC4=O)cc3F)cn2)n1 [AKG-29] as the molecule, how does the MIC [1] read?
The MIC was 0.125 µg/mL.

And the MIC [2]?
The MIC was 0.125 µg/mL.

What about the MIC (M. tuberculosis H37Rv) of the same molecule?
The MIC was 0.25 µg/mL.

And the MIC [3]?
The MIC was 0.06 µg/mL.

And the MIC [4]?
Its MIC is ≤ 0.03 µg/mL.

And the MIC [5]?
The MIC was 0.06 µg/mL.

For CC(=O)NC[C@H]1CN(c2ccc(-c3ccc(-c4nnn(CCN(C)C)n4)nc3)c(F)c2)C(=O)O1 [AKG-38], which MIC [1] is on record?
Its MIC is 0.03 µg/mL (≈ 0.064 µM).

What about the MIC [2] of the same molecule?
Its MIC is 0.03 µg/mL (≈ 0.064 µM).

And the MIC (M. tuberculosis H37Rv)?
The MIC was 0.03 µg/mL (≈ 0.064 µM).

What about the MIC [3] of the same molecule?
The MIC was 0.03 µg/mL (≈ 0.064 µM).

And the MIC [4]?
The MIC was ≤ 0.015 µg/mL.

And the MIC [5]?
The MIC was 0.03 µg/mL (≈ 0.064 µM).

With CCN(CC)CCn1nnc(-c2ccc(-c3ccc(N4C[C@H](CNC(C)=O)OC4=O)cc3F)cn2)n1 [AKG-39] as the molecule, how does the MIC [1] read?
The MIC was 0.5 µg/mL (≈ 1.01 µM).

And the MIC [2]?
The MIC was 1 µg/mL (≈ 2.01 µM).

And the MIC [3]?
Its MIC is 0.5 µg/mL (≈ 1.01 µM).

And the MIC [4]?
The MIC was 0.125 µg/mL (≈ 0.252 µM).

What about the MIC [5] of the same molecule?
The MIC was 0.25 µg/mL (≈ 0.503 µM).

Which results are given for CC[C@@H](CO)NCCN[C@@H](CC)CO [EMB]?
Drug resistance feature of the strain [6]: S; Drug resistance feature of the strain [7]: S; Drug resistance feature of the strain [8]: S; Drug resistance feature of the strain [9]: S; Drug resistance feature of the strain [10]: R

Which results are given for NNC(=O)c1ccncc1 [INH]?
MIC, µg/mL in M.tuberculosis strain M28 [1]: >2 µg/mL; Drug resistance feature of the strain [6]: R; MIC, µg/mL in M.tuberculosis strain M94 [2]: >2 µg/mL; MIC, µg/mL in M.tuberculosis strain H37Rv (M. tuberculosis H37Rv): 0.06 µg/mL (≈ 0.438 µM); Drug resistance feature of the strain [7]: R; MIC, µg/mL in M.tuberculosis strain M14 [3]: >2 µg/mL; Drug resistance feature of the strain [8]: R; MIC, µg/mL in M.tuberculosis strain M70 [4]: >2 µg/mL; Drug resistance feature of the strain [9]: R; Drug resistance feature of the strain [10]: R; MIC, µg/mL in M.tuberculosis strain TN5904 [5]: 2 µg/mL (≈ 14.6 µM)

Which MIC [1] does the source give for CC(=O)NC[C@H]1CN(c2ccc(N3CCOCC3)c(F)c2)C(=O)O1 [Linezolid] here?
Its MIC is 0.5 µg/mL (≈ 1.48 µM).

What about the MIC [2] of the same molecule?
The MIC was 0.5 µg/mL (≈ 1.48 µM).

What about the MIC (M. tuberculosis H37Rv) of the same molecule?
The MIC was 2 µg/mL (≈ 5.93 µM).

And the MIC [3]?
The MIC was 0.5 µg/mL (≈ 1.48 µM).

And the MIC [4]?
The MIC was 0.5 µg/mL (≈ 1.48 µM).

And the MIC [5]?
Its MIC is 1 µg/mL (≈ 2.96 µM).

With COc1c(N2C[C@@H]3CCCN[C@@H]3C2)c(F)cc2c(=O)c(C(=O)O)cn(C3CC3)c12 [MOX] as the molecule, how does the MIC [1] read?
The MIC was 2 µg/mL (≈ 4.98 µM).

What about the MIC [2] of the same molecule?
The MIC was 0.125 µg/mL (≈ 0.311 µM).

And the MIC (M. tuberculosis H37Rv)?
Its MIC is 0.125 µg/mL (≈ 0.311 µM).

And the MIC [3]?
Its MIC is 0.125 µg/mL (≈ 0.311 µM).

What about the MIC [4] of the same molecule?
The MIC was 1 µg/mL (≈ 2.49 µM).

What about the MIC [5] of the same molecule?
Its MIC is 0.125 µg/mL (≈ 0.311 µM).

With NC(=O)c1cnccn1 [PZA] as the molecule, how does the “Drug resistance feature of the strain” value [6] read?
Its value is “R”.

What about the “Drug resistance feature of the strain” value [7] of the same molecule?
The value was “R”.

And the “Drug resistance feature of the strain” value [8]?
Its value is “S”.

And the “Drug resistance feature of the strain” value [9]?
The value was “R”.

What about the “Drug resistance feature of the strain” value [10] of the same molecule?
The value was “R”.

Which results are given for CO[C@H]1/C=C/O[C@@]2(C)Oc3c(C)c(O)c4c(O)c(c(/C=N/N5CCN(C)CC5)c(O)c4c3C2=O)NC(=O)/C(C)=C\C=C\[C@H](C)[C@H](O)[C@@H](C)[C@@H](O)[C@@H](C)[C@H](OC(C)=O)[C@@H]1C [RIF]?
MIC, µg/mL in M.tuberculosis strain M28 [1]: >8 µg/mL; Drug resistance feature of the strain [6]: S; MIC, µg/mL in M.tuberculosis strain H37Rv (M. tuberculosis H37Rv): 0.06 µg/mL (≈ 0.0729 µM); Drug resistance feature of the strain [7]: R; MIC, µg/mL in M.tuberculosis strain M14 [3]: 0.06 µg/mL (≈ 0.0729 µM); Drug resistance feature of the strain [8]: S; MIC, µg/mL in M.tuberculosis strain M70 [4]: >8 µg/mL; Drug resistance feature of the strain [9]: R; Drug resistance feature of the strain [10]: R; MIC, µg/mL in M.tuberculosis strain TN5904 [5]: >8 µg/mL

With CN[C@@H]1[C@H](O[C@H]2[C@H](O[C@H]3[C@H](O)[C@@H](O)[C@H](N=C(N)N)[C@@H](O)[C@@H]3N=C(N)N)O[C@@H](C)[C@]2(O)C=O)O[C@@H](CO)[C@H](O)[C@H]1O [STR] as the molecule, how does the “MIC, µg/mL in M.tuberculosis strain M28” value [1] read?
Its value is 0.125 µg/mL (≈ 0.215 µM).

What about the “Drug resistance feature of the strain” value [6] of the same molecule?
The value was “R”.

What about the “MIC, µg/mL in M.tuberculosis strain M94” value [2] of the same molecule?
The value was >8 µg/mL.

What about the “MIC, µg/mL in M.tuberculosis strain H37Rv” value (M. tuberculosis H37Rv) of the same molecule?
Its value is 0.5 µg/mL (≈ 0.86 µM).

What about the “Drug resistance feature of the strain” value [7] of the same molecule?
The value was “R”.

What about the “MIC, µg/mL in M.tuberculosis strain M14” value [3] of the same molecule?
The value was >8 µg/mL.

What about the “Drug resistance feature of the strain” value [8] of the same molecule?
Its value is “R”.

And the “MIC, µg/mL in M.tuberculosis strain M70” value [4]?
The value was 2 µg/mL (≈ 3.44 µM).

And the “Drug resistance feature of the strain” value [9]?
Its value is “R”.

And the “Drug resistance feature of the strain” value [10]?
Its value is “S”.

And the “MIC, µg/mL in M.tuberculosis strain TN5904” value [5]?
Its value is 1 µg/mL (≈ 1.72 µM).
